Measurements from the supplement of paper PMC10307832.

Legend:
Experiment in all cases: relative viability (nuclei count vs DMSO), 5 days (fraction); higher = more cells survive
AZD6482 + Alpelisib = compound: Cc1cc([C@@H](C)Nc2ccccc2C(=O)O)c2nc(N3CCOCC3)cc(=O)n2c1 [AZD6482] + Cc1nc(NC(=O)N2CCC[C@H]2C(N)=O)sc1-c1ccnc(C(C)(C)C(F)(F)F)c1 [Alpelisib] (partner 2 µM)
In short: (§1)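 One day after seeding in 1536-well plates, lung cancer cell lines were dosed by pin tool. Dosing was either single-drug or a fixed anchor-drug dose plus five library-drug doses (not always all listed) in √10 steps. After 5 days, nuclei were stained in one fix-and-stain step and counted on 4× images, and relative viability is the nuclei count of treated wells over that of vehicle wells, given as the median of duplicate plates.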

AZD6482 + Tozasertib = compound: Cc1cc([C@@H](C)Nc2ccccc2C(=O)O)c2nc(N3CCOCC3)cc(=O)n2c1 [AZD6482] + Cc1cc(Nc2cc(N3CCN(C)CC3)nc(Sc3ccc(NC(=O)C4CC4)cc3)n2)n[nH]1 [Tozasertib] (partner 0.1 µM)
In short: as §1

AZD6482 + Palbociclib = compound: Cc1cc([C@@H](C)Nc2ccccc2C(=O)O)c2nc(N3CCOCC3)cc(=O)n2c1 [AZD6482] + CC(=O)c1c(C)c2cnc(Nc3ccc(N4CCNCC4)cn3)nc2n(C2CCCC2)c1=O [Palbociclib] (partner 0.5 µM)
In short: as §1

AZD6482 + Phenformin = compound: Cc1cc([C@@H](C)Nc2ccccc2C(=O)O)c2nc(N3CCOCC3)cc(=O)n2c1 [AZD6482] + N=C(N)NC(=N)NCCc1ccccc1 [Phenformin] (partner 250 µM)
In short: as §1

Cell Line	relative viability (AZD6482 + Alpelisib; first compound 0.08 µM)	relative viability (AZD6482 + Alpelisib; first compound 0.253 µM)	relative viability (AZD6482 + Alpelisib; first compound 0.8 µM)	relative viability (AZD6482 + Alpelisib; first compound 2.53 µM)	relative viability (AZD6482 + Alpelisib; first compound 8 µM)	relative viability (AZD6482 + Tozasertib; first compound 0.08 µM)	relative viability (AZD6482 + Tozasertib; first compound 0.253 µM)	relative viability (AZD6482 + Tozasertib; first compound 0.8 µM)	relative viability (AZD6482 + Tozasertib; first compound 2.53 µM)	relative viability (AZD6482 + Tozasertib; first compound 8 µM)	relative viability (AZD6482 + Palbociclib; first compound 0.08 µM)	relative viability (AZD6482 + Palbociclib; first compound 0.253 µM)	relative viability (AZD6482 + Palbociclib; first compound 0.8 µM)	relative viability (AZD6482 + Palbociclib; first compound 2.53 µM)	relative viability (AZD6482 + Palbociclib; first compound 8 µM)	relative viability (AZD6482 + Phenformin; first compound 0.08 µM)	relative viability (AZD6482 + Phenformin; first compound 0.253 µM)	relative viability (AZD6482 + Phenformin; first compound 0.8 µM)	relative viability (AZD6482 + Phenformin; first compound 2.53 µM)	relative viability (AZD6482 + Phenformin; first compound 8 µM)
HCC-78	0.222	0.179	0.212	0.159	0.194	0.327	0.335	0.271	0.317	0.227	0.402	0.449	0.4	0.378	0.427	0.506	0.421	0.562	0.309	0.31
HCC-366	0.171	0.165	0.208	0.105	0.188	0.108	0.0944	0.0731	0.12	0.063	0.334	0.367	0.385	0.35	0.229	0.663	0.609	0.636	0.477	0.45
HCC-827	0.613	0.506	0.456	0.33	0.351	0.379	0.405	0.422	0.342	0.287	0.437	0.504	0.435	0.378	0.229	0.45	0.345	0.381	0.288	0.301
HOP-62	1	0.959	1.19	0.531	0.903	0.374	0.382	0.311	0.363	0.332	0.504	0.525	0.486	0.457	0.407	0.679	0.733	0.745	0.577	0.707
IA-LM	0.638	0.585	0.631	0.313	0.809															
LC-2-ad	0.704	0.597	0.668	0.467	0.507	0.392	0.428	0.452	0.5	0.379	0.478	0.539	0.537	0.521	0.399	0.615	0.497	0.6	0.442	0.471
LCLC-97TM1	0.274	0.19	0.238	0.187	0.204	0.206	0.208	0.168	0.158	0.128	0.167	0.225	0.188		0.172	0.443	0.44	0.39	0.363	0.308
LCLC-103H	0.877	0.747	0.701	0.605	0.553	0.486	0.456	0.472	0.412	0.303	0.48	0.475	0.47	0.265	0.353	0.255	0.274	0.342	0.251	0.215
LK-2	1.07		1.86	0.972	1.21	0.142	0.162	0.15	0.182	0.168	0.732	0.698	0.688	0.54	0.342	0.405	0.382	0.257	0.338	0.184
LOU-NH91	0.547	0.676	0.647	0.525	0.639	0.551	0.66	0.605	0.546	0.496	0.537	0.557	0.552	0.49	0.542	0.546	0.718	0.737	0.46	0.556
LU99A	0.452	0.441	0.619	0.372	0.421	0.281	0.294	0.253	0.263	0.247	0.373	0.368	0.397	0.353	0.311	0.903	0.848	0.791	0.691	0.813
NCI-H522						0.541	0.439	0.623	0.523	0.543	1.07	0.933	0.691	0.805	0.825	0.607	0.764	0.7	0.654	0.396
NCI-H596	0.449	0.437	0.445	0.44	0.388	0.854	1.16	0.725	0.772	0.666						0.658	0.576	0.636	0.691	0.737
NCI-H1299	1.14	1.17	1.27	1.04	1.28															
NCI-H1563	0.753	0.703	0.672	0.661	0.688											0.684	0.653	0.67	0.65	0.629
NCI-H1648						0.538	0.463	0.588	0.351	0.409	0.313	0.275	0.265		0.242					
NCI-H1650						0.36	0.378	0.303	0.336	0.393	0.312	0.271	0.269	0.267	0.288	0.333	0.369	0.373	0.233	0.297
NCI-H1703	0.273	0.179	0.194	0.167	0.231															
NCI-H1792	0.516	0.518	0.67	0.393	0.359						0.593	0.611	0.648	0.561	0.512	0.222	0.237	0.298		0.13
NCI-H2342						0.465	0.432	0.488	0.372	0.359	0.536	0.499	0.506	0.54	0.448	0.517	0.569	0.682	0.373	0.429
SW 900						0.559	0.506	0.561		0.567	0.474	0.434	0.348	0.355	0.389	0.48	0.29	0.449		0.414
